What was measured:
AB-RNA [1] = assay: Hybrid capture on streptavidin-coated paramagnetic beads (AB-RNA : biotinylated oligonucleotide RBS-96-60); assay type: binding
Excerpt: SA coated paramagnetic beads: The washing step required when using SA-beads can be facilitated by using paramagnetic-SA coated beads (PMP-SA). These beads are commercially available (Promega, Madison, Wis.) and can be concentrated and held by a magnet. Positioning the magnet under the plate during washing steps concentrates and retains the beads at the bottom of the well during the washing procedure thus preventing loss of beads and allowing faster operation. An example of the use of this method is described in Example 2 below. The [^32P]-labelled ATP-binding RNA described in Example 1 above (AB-RNA) was heat denatured at 90° C. for 2 min in binding buffer (50 mM Tris pH 7.5, 200 mM NaCl, and 10 mM MgCl2) and chilled on ice for 2 min. 37.5 μl aliquots of the heat denatured AB-RNA were then mixed with 12.5 μl of a solution containing 12.5 pmol of the 5′-biotinylated oligonucleotide RBS-96-60 (having a nucleotide sequence identical to RBS-87-8A described in Example 1 above) and varying amounts of ATP or UTP. After a brief incubation at room temperature, the mixture was transferred into 96-well plates containing 0.5 mg paramagnetic beads coated with streptavidin (PMP-SA) (Promega, Madison, Wis.). Plates were incubated at room temperature for 15 min to allow binding. […] [^32P]-labelled AB-RNA bound to the beads was then quantitated by Cerenkov counting in a Microbetta LSC-counter (Wallac).

AB-RNA [2] = assay: SCAN nitrocellulose filter binding assay, AB-RNA and biotinylated oligonucleotide 67B
Experimental: Adsorption to nitrocellulose filters: This embodiment takes advantage of the fact that most proteins tightly adsorb to nitrocellulose filters. When using a biotinylated oligonucleotide and a labelled target RNA, free SA or a SA derivative such as SA:alkaline phosphatase conjugate (SA:AP), SA:β-galactosidase (SA:BG), or other SA-conjugate or fusion protein, is added to the reaction to allow binding to the biotin moiety in the oligonucleotide. Subsequently, the reaction is filtered through 96-well nitrocellulose filter plates (Millipore, Bedford, Mass., HATF or NC). Labeled target RNA hybridized to the biotinylated oligonucleotide is retained in the filter through the adsorption of SA or its derivative to the filter, while unhybridized RNA passes through. […] Therefore, the use of SA fusion proteins or conjugates is preferred. An example of the use of this method is described in Example 3 below. SCAN reactions containing 100 nM radiolabeled AB-RNA and 250 nM biotinylated oligonucleotide 67B were incubated with increasing amounts of ATP or UTP as test ligands. In the absence of test ligand, 70% of AB-RNA was retained on NC-filters. Inhibition of RNA retention on NC-filters Inhibition of RNA retention on NC-filters (% inhibtion) was obtained as (1−(R/R0)×100), where R0 is retention without test ligand and R is retention with test ligand. […]

HIV RRE RNA = assay: SCAN nitrocellulose filter binding assay, RRE RNA and biotinylated complementary oligonucleotide; details: heterologous RNA target, FIG. 17
Experimental: Adsorption to nitrocellulose filters: This embodiment takes advantage of the fact that most proteins tightly adsorb to nitrocellulose filters. When using a biotinylated oligonucleotide and a labelled target RNA, free SA or a SA derivative such as SA:alkaline phosphatase conjugate (SA:AP), SA:β-galactosidase (SA:BG), or other SA-conjugate or fusion protein, is added to the reaction to allow binding to the biotin moiety in the oligonucleotide. Subsequently, the reaction is filtered through 96-well nitrocellulose filter plates (Millipore, Bedford, Mass., HATF or NC). Labeled target RNA hybridized to the biotinylated oligonucleotide is retained in the filter through the adsorption of SA or its derivative to the filter, while unhybridized RNA passes through. […] Therefore, the use of SA fusion proteins or conjugates is preferred. An example of the use of this method is described in Example 3 below.
The target RNA was an RNA molecule containing the binding site for the HIV Rev protein (Rev Responsive Element, RRE; 5′-GAAUACUAUGGGCGCAGCGUCAAUGACGCUGACGGUACAGGCCAGACAAUUAUUGUCUGGUAUAGU-3′- SEQ ID NO:2) which had been labelled with 32P as described in Example 1 above. […] The filtrate was further washed with 400 μl of the same buffer and the amount of RRE retained in the filter was determined by liquid scintillation counting. […]

AB RNA [3] = assay: SCAN assay under equilibrium conditions (dissociation of pre-formed AB RNA:oligonucleotide complexes); assay type: binding; details: 100 μM ATP, 20 nM AB RNA, 100 nM oligonucleotide
Excerpt: A screening assay having this configuration has the advantage of removing time constraints for various steps in the assay. In addition, thermodynamic parameters associated with ligand binding can be more easily derived from the results of the assay. Using a series of oligonucleotides of various length and target sites comprising AB RNA, a group of oligonucleotides has been identified that fully equilibrate with ATP (an example is shown in FIG. 20, top panel). The oligonucleotide used is complementary to the sequence shown in bold-faced letters (FIG. 20, top panel). Target RNA:oligonucleotide complexes were pre-formed by incubated a solution containing 100 nM AB RNA and 500 nM oligonucleotide for 2 h at 25° C. Dissociation was initiated by diluting the reaction 5-fold in the presence or absence of 100 μM ATP (resulting in final concentrations of AB RNA, 20 nM; oligonucleotide, 100 nM; ATP, 100 μM). Binding of hybrids to nitrocellulose filters was performed as described above.

AB RNA [4] = assay: UV absorbance (260 nM) thermal melting of AB RNA; assay type: binding
Experimental: The experiment described below was performed to monitor the stabilization of an RNA structure upon ligand binding. In this experiment, absorbance at 260 nm was monitored as the temperature of the sample was increased. The increase in temperature causes the RNA to unfold, thereby allowing individual bases to absorb more ultraviolet light.

AB-RNA-F = assay: Fluorescence SCAN assay, fluorescein-labelled AB-RNA-F and unlabelled oligonucleotide 67B; assay type: binding; details: for effect on fluorescence increase: FIG. 28B
Experimental: B. Experimental results: While developing a SCAN assay based on FET between 3′-fluorescein labeled AB-RNA (AB-RNA-F) and a 5′-rhodamine labeled oligonucleotide, it was unexpectedly observed in a control experiment that a substantial increase in fluorescein emission at 535 nm occurred upon addition of an oligonucleotide carrying no fluorescent labels (FIG. 28A). Reactions containing 50 mM Tris pH 7.5, 200 mM NaCl, 10 mM MgCl2, and 60 nM AB-RNA-F were monitored at 535 nm emission (485 nm excitation) in a CytoFluor II fluorescence multi-well plate reader (PerSeptive Biosystems, Framingham,Mass.) for increasing times after the addition of oligonucleotide 67B. Because of the high reproducibility and sensitivity of fluorescence spectrophotometers, a 2-fold increase in fluorescence represents more that sufficient change in signal to use it as a sensitive assay. Therefore, the effect of ATP, GTP and UTP was tested in SCAN reactions containing AB-RNA-F and the unlabeled oligonucleotide 67B (FIG. 28B).

AB-RNA [5] = assay: Gel shift assay: hybridization of radiolabelled AB-RNA to complementary DNA oligonucleotide RBS-87-8A; assay type: binding; details: 30 μM ligand
Excerpt: A gel shift protocol, though nominally a low-throughput method, is an important tool for the initial selection of the assay configuration for oligonucleotide-based methods to be used with each particular target RNA. Typically, the target RNA is transcribed in vitro, using as template a DNA that contains the sequence for the T7-RNA polymerase promoter followed by a region encoding the target RNA, and [^32P]-UTP to produce radiolabelled RNA. Conditions for the T7 RNA polymerase transcription reaction using oligonucleotide templates have been described by Milligan et al., Nuc. Acids Res., 15: 8783, 1987. The [^32P]-labelled target RNA is optionally heat denatured at 90° C. for 2 min and chilled on ice for 2 min, after which aliquots are incubated in the absence and presence of test ligands and increasing concentrations of a complementary oligonucleotide. The reaction mixtures are then resolved in polyacrylamide native gels containing or lacking the test ligands.
AB-RNA was transcribed using as template the DNA oligonucleotide RBS-87-8A, (5′-GGAACCTTGCCGGCACCGAAGTGCCGCAGTTTCTTCCCAAGGTTCCTATAGTGAGTCGTATTA-3′-SEQ ID NO:1), which contains the sequence for the T7-RNA polymerase promoter followed by a region encoding AB-RNA. [32P]-labelled AB-RNA was obtained by including [32P]-UTP in the transcription reaction. […]

SMILES | IC50 (AB-RNA [1]; PMP-SA beads, room temperature, read-out: ligand concentration reducing the amount of hybrids formed by 50%) [mM] | IC50 (AB-RNA [2]; 100 nM AB-RNA, 250 nM oligonucleotide 67B, read-out: ligand concentration inhibiting AB-RNA retention on NC-filters by 50%) [mM] | specificity factor ATP versus UTP (AB-RNA [2]; ratio of concentrations for 50% inhibition) [fold] | effect on RRE based SCAN reactions (HIV RRE RNA) | inhibition of oligo:RNA complex (AB RNA [3]) | temperature of new transition in first derivative of absorbance, seen only with ligand (AB RNA [4]; absorbance at 260 nm, FIG. 21) [°C] | effect of ligand on RNA structure (AB RNA [4]; thermal melting) | IC50 (AB-RNA-F; 60 nM AB-RNA-F, emission 535 nm, read-out: IC50 for inhibition of fluorescence increase) [mM] | effect on fluorescence increase (AB-RNA-F) | competition with the oligonucleotide for binding to AB-RNA (AB-RNA [5]) | effect on amount of hybrids bound to PMP-SA beads (AB-RNA [1]; increasing ligand concentrations)
Nc1ncnc2c1ncn2[C@@H]1O[C@H](COP(=O)(O)OP(=O)(O)OP(=O)(O)O)[C@@H](O)[C@H]1O [ATP] | 0.025 | 5 | 100 | no effect | approximately 60% | 40 | stabilizes the RNA structure | 5 | – | – | –
Nc1nc2c(ncn2[C@@H]2O[C@H](COP(=O)(O)OP(=O)(O)OP(=O)(O)O)[C@@H](O)[C@H]2O)c(=O)[nH]1 [GTP] | – | – | – | – | – | – | – | – | no effect at all | – | –
O=c1ccn([C@@H]2O[C@H](COP(=O)(O)OP(=O)(O)OP(=O)(O)O)[C@@H](O)[C@H]2O)c(=O)[nH]1 [UTP] | – | – | – | – | – | – | – | – | some effect at much higher concentrations | unable to compete | no effect
